Paper doi:10.1101/2021.09.30.462449v1 (biorxiv, 2021)

How the values were obtained:
Experiment in all cases: biochemical
Settings in all cases: read-out: % inhibition mean (Lanthascreen)
WNK2 = WNK2 (Homo sapiens, UniProt Q9Y3S1)
SIK3 = SIK3 (Homo sapiens, UniProt Q9Y2K2)
[1] = biological target: MAP3K7/MAP3K7IP1 (TAK1-TAB1) (Homo sapiens, UniProt O43318)
BMPR1B (ALK6) = BMPR1B (ALK6) (Homo sapiens, UniProt O00238)
TAOK3 (JIK) = TAOK3 (JIK) (Homo sapiens, UniProt Q9H2K8)
ULK2 = ULK2 (Homo sapiens, UniProt Q8IYT8)
MAP4K3 (GLK) = MAP4K3 (GLK) (Homo sapiens, UniProt Q8IVH8)
CDK5 (Inactive) = CDK5 (Inactive) (Homo sapiens, UniProt Q00535)
CASK = CASK (Homo sapiens, UniProt O14936)
CASK, sequence (O14936 whole entry): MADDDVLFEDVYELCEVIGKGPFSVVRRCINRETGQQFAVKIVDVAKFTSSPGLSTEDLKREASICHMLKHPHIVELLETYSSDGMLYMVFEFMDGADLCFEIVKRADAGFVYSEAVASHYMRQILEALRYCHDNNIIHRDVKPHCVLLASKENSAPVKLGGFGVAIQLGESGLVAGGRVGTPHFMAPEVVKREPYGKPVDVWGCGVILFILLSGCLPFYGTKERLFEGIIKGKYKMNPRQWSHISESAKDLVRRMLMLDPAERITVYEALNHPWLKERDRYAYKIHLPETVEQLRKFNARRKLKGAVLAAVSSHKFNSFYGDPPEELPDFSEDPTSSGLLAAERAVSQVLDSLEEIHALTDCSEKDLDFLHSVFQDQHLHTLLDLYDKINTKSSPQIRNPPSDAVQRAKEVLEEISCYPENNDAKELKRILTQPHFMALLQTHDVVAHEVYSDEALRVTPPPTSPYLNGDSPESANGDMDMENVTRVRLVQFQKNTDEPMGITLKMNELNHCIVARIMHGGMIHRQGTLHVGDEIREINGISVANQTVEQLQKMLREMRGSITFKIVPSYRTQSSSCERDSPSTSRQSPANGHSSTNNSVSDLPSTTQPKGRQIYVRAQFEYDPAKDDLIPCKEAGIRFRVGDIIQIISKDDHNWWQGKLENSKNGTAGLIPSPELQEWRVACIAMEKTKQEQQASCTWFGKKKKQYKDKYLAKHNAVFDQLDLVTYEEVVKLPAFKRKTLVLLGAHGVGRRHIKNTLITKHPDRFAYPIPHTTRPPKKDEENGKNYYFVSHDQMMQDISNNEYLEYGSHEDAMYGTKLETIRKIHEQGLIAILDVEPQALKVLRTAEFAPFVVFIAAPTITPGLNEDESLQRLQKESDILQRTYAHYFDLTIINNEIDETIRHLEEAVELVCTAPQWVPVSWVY

RET M918T = RET M918T (Homo sapiens, UniProt P07949, M918T)
DYRK2 = DYRK2 (Homo sapiens, UniProt Q92630)
ABL1 H396P = ABL1 H396P (Homo sapiens, UniProt P00519, H396P)
SIK1 = SIK1 (Homo sapiens, UniProt P57059)
TGFBR1 (ALK5) = TGFBR1 (ALK5) (Homo sapiens, UniProt P36897)
MAP2K4 (MEK4) = MAP2K4 (MEK4) (Homo sapiens, UniProt P45985)
TLK2 = TLK2 (Homo sapiens, UniProt Q86UE8)
KIT V654A = KIT V654A (Homo sapiens, UniProt P10721, V654A)
KIT V654A, sequence (P10721 whole entry V654A): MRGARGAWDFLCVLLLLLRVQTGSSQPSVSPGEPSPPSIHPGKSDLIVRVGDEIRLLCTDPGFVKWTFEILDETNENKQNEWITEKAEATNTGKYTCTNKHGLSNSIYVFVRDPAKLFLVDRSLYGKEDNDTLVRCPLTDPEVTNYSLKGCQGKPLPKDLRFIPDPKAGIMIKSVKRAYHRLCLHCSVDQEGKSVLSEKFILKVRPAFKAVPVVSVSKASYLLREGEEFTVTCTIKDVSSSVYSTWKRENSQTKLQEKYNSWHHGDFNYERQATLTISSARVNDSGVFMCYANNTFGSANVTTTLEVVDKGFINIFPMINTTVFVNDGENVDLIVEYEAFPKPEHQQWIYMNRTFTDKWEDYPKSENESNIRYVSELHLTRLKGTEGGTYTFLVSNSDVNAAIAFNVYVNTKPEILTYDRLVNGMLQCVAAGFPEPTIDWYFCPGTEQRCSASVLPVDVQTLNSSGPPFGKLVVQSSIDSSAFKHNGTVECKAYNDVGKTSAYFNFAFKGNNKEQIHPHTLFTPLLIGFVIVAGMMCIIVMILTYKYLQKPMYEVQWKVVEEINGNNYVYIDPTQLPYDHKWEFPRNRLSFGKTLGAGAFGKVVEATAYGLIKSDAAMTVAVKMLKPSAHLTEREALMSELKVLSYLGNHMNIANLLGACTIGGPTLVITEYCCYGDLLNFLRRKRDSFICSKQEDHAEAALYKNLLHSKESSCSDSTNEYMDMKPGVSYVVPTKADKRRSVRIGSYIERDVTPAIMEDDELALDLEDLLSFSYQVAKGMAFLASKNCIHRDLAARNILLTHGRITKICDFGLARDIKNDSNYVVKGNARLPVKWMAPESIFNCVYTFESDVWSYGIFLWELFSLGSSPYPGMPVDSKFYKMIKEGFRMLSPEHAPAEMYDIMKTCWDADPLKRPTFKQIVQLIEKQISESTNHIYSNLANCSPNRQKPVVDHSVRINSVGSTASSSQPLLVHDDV

NEK8 = NEK8 (Homo sapiens, UniProt Q86SG6)
STK39 (STLK3) = STK39 (STLK3) (Homo sapiens, UniProt Q9UEW8)
MAP3K3 (MEKK3) = MAP3K3 (MEKK3) (Homo sapiens, UniProt Q99759)
MLK4 = MLK4 (Homo sapiens, UniProt Q5TCX8)
FYN A = FYN A (Homo sapiens, UniProt P06241)
FYN A, sequence (P06241 whole entry): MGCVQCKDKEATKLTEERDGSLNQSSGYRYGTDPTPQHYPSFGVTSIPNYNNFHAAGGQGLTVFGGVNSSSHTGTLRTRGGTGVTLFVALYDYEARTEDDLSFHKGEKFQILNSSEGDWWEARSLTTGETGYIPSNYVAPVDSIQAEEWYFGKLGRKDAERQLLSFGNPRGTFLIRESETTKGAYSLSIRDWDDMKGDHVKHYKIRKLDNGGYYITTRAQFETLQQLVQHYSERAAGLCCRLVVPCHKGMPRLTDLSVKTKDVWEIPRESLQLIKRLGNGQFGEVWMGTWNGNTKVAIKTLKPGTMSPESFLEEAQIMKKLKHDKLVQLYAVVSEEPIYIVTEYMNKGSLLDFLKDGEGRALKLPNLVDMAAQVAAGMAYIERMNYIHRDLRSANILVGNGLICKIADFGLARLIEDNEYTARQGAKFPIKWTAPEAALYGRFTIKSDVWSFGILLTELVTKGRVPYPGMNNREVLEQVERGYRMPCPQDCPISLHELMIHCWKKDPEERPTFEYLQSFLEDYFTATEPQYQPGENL

MAP2K2 (MEK2) = MAP2K2 (MEK2) (Homo sapiens, UniProt P36507)
MAP2K2 (MEK2), sequence (P36507 whole entry): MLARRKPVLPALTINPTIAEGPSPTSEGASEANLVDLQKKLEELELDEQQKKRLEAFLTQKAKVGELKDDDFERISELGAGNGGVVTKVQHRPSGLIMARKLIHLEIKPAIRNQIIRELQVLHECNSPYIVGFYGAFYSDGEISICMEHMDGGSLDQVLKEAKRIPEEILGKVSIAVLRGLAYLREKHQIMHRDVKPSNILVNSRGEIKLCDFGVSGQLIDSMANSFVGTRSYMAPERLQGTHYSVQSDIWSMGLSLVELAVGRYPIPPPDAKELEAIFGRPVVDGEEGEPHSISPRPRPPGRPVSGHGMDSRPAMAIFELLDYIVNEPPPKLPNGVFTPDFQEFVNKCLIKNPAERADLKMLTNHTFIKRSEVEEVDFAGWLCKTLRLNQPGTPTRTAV

TLK1 = TLK1 (Homo sapiens, UniProt Q9UKI8)
TEC = TEC (Homo sapiens, UniProt P42680)
TESK2 = TESK2 (Homo sapiens, UniProt Q96S53)
TESK2, sequence (Q96S53 whole entry): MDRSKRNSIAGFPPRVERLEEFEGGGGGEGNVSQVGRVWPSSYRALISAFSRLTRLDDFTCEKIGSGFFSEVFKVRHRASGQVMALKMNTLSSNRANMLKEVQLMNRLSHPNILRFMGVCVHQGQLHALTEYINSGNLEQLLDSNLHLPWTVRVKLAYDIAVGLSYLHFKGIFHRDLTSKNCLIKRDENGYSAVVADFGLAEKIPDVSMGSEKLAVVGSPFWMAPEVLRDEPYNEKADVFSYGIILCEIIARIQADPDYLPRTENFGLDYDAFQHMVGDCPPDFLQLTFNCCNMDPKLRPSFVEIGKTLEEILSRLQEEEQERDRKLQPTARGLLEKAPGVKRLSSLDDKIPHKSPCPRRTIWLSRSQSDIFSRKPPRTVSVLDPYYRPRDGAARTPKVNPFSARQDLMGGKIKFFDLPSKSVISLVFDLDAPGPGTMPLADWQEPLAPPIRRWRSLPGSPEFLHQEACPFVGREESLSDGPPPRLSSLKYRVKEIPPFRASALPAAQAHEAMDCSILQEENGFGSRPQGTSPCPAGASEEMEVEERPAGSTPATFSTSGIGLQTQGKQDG

MET D1228H = MET D1228H (Homo sapiens, UniProt P08581, D1228H)
MET D1228H, sequence (P08581 whole entry D1228H): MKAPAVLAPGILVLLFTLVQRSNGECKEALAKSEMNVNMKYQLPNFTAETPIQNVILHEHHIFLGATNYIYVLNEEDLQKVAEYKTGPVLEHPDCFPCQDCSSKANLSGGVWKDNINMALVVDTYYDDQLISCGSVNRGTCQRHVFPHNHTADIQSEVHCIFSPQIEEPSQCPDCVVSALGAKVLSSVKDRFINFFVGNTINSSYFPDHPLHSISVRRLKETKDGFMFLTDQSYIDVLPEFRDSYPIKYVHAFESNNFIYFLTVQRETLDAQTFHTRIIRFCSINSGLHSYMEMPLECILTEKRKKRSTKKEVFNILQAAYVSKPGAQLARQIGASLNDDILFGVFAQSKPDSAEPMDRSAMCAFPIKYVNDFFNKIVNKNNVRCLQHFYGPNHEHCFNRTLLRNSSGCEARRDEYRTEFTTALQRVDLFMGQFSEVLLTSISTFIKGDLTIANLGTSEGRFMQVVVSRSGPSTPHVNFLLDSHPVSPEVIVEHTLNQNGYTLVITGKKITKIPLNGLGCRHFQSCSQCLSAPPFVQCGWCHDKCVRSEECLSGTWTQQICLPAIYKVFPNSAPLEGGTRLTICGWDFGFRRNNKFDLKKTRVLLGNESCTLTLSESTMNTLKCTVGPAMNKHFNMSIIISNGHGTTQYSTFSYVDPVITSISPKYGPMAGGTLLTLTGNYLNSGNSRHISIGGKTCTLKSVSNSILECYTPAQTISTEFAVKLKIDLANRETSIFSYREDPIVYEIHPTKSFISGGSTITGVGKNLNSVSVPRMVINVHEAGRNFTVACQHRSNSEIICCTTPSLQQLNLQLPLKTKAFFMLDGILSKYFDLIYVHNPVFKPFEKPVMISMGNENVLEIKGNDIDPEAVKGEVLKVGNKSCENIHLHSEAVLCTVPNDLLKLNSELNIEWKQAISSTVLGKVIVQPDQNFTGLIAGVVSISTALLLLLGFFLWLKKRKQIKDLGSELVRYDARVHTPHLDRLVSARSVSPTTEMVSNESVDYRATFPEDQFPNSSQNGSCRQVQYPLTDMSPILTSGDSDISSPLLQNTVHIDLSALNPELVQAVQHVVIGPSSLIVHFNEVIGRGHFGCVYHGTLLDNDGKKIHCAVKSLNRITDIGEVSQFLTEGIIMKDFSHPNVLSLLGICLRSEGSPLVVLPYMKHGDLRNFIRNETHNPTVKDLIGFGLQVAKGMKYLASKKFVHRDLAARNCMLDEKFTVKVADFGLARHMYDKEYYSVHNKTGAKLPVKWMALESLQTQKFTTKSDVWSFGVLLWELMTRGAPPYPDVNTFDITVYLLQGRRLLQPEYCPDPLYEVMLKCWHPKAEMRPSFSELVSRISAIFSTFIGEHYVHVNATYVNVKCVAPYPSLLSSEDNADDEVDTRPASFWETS

CDK16 (PCTK1)/cyclin Y = CDK16 (PCTK1)/cyclin Y (Homo sapiens, UniProt Q00536)
ANKK1 = ANKK1 (Homo sapiens, UniProt Q8NFD2)

COc1ccc2nc3cc(Cl)ccc3c(Nc3cc(CN4CCCC4)c(O)c(CN4CCCC4)c3)c2n1 [Pyronaridine, 4-[(7-Chloro-2-methoxybenzo[b][1,5]naphthyridin-10-yl)amino]-2,6-bis(1-pyrrolidinylmethyl)phenol phosphate (1:4)]
inhibition at 1 µM (WNK2): 4% | inhibition at 1 µM (SIK3): -2% | inhibition at 1 µM [1]: 1% | inhibition at 1 µM (BMPR1B (ALK6)): -3% | inhibition at 1 µM (TAOK3 (JIK)): -2% | inhibition at 1 µM (ULK2): 2% | inhibition at 1 µM (MAP4K3 (GLK)): 1% | inhibition at 1 µM (CDK5 (Inactive)): -1% | inhibition at 1 µM (CASK): 2% | inhibition at 1 µM (RET M918T): -3% | inhibition at 1 µM (DYRK2): -7% | inhibition at 1 µM (ABL1 H396P): 7% | inhibition at 1 µM (SIK1): 2% | inhibition at 1 µM (TGFBR1 (ALK5)): -4% | inhibition at 1 µM (MAP2K4 (MEK4)): 1% | inhibition at 1 µM (TLK2): -2% | inhibition at 1 µM (KIT V654A): 10% | inhibition at 1 µM (NEK8): 0% | inhibition at 1 µM (STK39 (STLK3)): -19% | inhibition at 1 µM (MAP3K3 (MEKK3)): -3% | inhibition at 1 µM (MLK4): 8% | inhibition at 1 µM (FYN A): -3% | inhibition at 1 µM (MAP2K2 (MEK2)): -3% | inhibition at 1 µM (TLK1): 12% | inhibition at 1 µM (TEC): 7% | inhibition at 1 µM (TESK2): -3% | inhibition at 1 µM (MET D1228H): 3% | inhibition at 1 µM (CDK16 (PCTK1)/cyclin Y): -12% | inhibition at 1 µM (ANKK1): -2%
